Assay results as given in ChEMBL document CHEMBL1150994, “The chemical synthesis of large random peptide libraries and their use for the discovery of ligands for macromolecular acceptors” (Bioorg Med Chem Lett, 1993).
The source made the active and inactive calls. No cut-off for these calls is given here. Where a SMILES comes first, the peptide text is derived from it. [ ]: non-standard residue; d: D form. βAla = NCCC(=O)O

Each compound was assayed on Monoclonal antibody (mAb) 3E7 (assay: Affinity towards anti-beta-endorphin MAb(Clone 3-E7) using [3H][Leu5]-enkephalin as labeled ligand).

Compound | IC50 [nM]
C[C@@H](O)[C@H](NC(=O)[C@H](Cc1ccccc1)NC(=O)CNC(=O)CNC(=O)[C@@H](N)Cc1ccc(O)cc1)C(=O)NCCC(=O)O (H-YGGFT[βAla]-OH) | 50.6
CSCC[C@H](NC(=O)CNC(=O)CNC(=O)[C@@H](N)Cc1ccc(O)cc1)C(=O)N[C@H](C(N)=O)C(C)C (H-YGGMV-NH2) | 14000
C[C@H](NC(=O)[C@H](Cc1ccccc1)NC(=O)CNC(=O)CNC(=O)[C@@H](N)Cc1ccc(O)cc1)C(=O)NCCC(N)=O (H-YGGFA[βAla]-NH2) | 93.6
CSCC[C@H](NC(=O)CNC(=O)CNC(=O)[C@@H](N)Cc1ccc(O)cc1)C(=O)N[C@H](C(=O)NCCC(=O)O)C(C)C (H-YGGMV[βAla]-OH) | 5140
C[C@H](NC(=O)[C@H](Cc1ccccc1)NC(=O)CNC(=O)CNC(=O)[C@@H](N)Cc1ccc(O)cc1)C(N)=O (H-YGGFA-NH2) | 72
C[C@@H](O)[C@H](NC(=O)[C@H](Cc1ccccc1)NC(=O)CNC(=O)CNC(=O)[C@@H](N)Cc1ccc(O)cc1)C(N)=O (H-YGGFT-NH2) | 65.2
NC(=O)CCNC(=O)[C@H](CCC(N)=O)NC(=O)[C@H](Cc1ccccc1)NC(=O)CNC(=O)CNC(=O)[C@@H](N)Cc1ccccc1 (H-FGGFQ[βAla]-NH2) | 45.4
CSCC[C@H](NC(=O)CNC(=O)CNC(=O)[C@@H](N)Cc1ccc(O)cc1)C(=O)N[C@H](C(=O)NCCC(N)=O)C(C)C (H-YGGMV[βAla]-NH2) | 7160
CC(C)C[C@H](NC(=O)CNC(=O)CNC(=O)[C@@H](N)Cc1ccc(O)cc1)C(=O)N[C@@H](CO)C(=O)NCCC(N)=O (H-YGGLS[βAla]-NH2) | 1150
CC(C)C[C@H](NC(=O)[C@H](C)NC(=O)CNC(=O)[C@@H](N)Cc1ccc(O)cc1)C(=O)N[C@@H](CCC(N)=O)C(N)=O (H-YGALQ-NH2) | 2910
CC(C)C[C@H](NC(=O)[C@H](C)NC(=O)CNC(=O)[C@@H](N)Cc1ccc(O)cc1)C(=O)N[C@@H](CCC(N)=O)C(=O)NCCC(N)=O (H-YGALQ[βAla]-NH2) | 2870
CC(C)C[C@H](NC(=O)CNC(=O)CNC(=O)[C@@H](N)Cc1ccc(O)cc1)C(=O)N[C@@H](CO)C(=O)NCCC(=O)O (H-YGGLS[βAla]-OH) | 916
NC(=O)CC[C@H](NC(=O)[C@H](Cc1ccccc1)NC(=O)CNC(=O)CNC(=O)[C@@H](N)Cc1ccccc1)C(=O)NCCC(=O)O (H-FGGFQ[βAla]-OH) | 39.4
C[C@H](NC(=O)[C@H](Cc1ccccc1)NC(=O)CNC(=O)CNC(=O)[C@@H](N)Cc1ccc(O)cc1)C(=O)NCCC(=O)O (H-YGGFA[βAla]-OH) | 82.3
C[C@@H](O)[C@H](NC(=O)[C@H](Cc1ccccc1)NC(=O)CNC(=O)CNC(=O)[C@@H](N)Cc1ccc(O)cc1)C(=O)NCCC(N)=O (H-YGGFT[βAla]-NH2) | 43.3
CC(C)C[C@H](NC(=O)[C@H](Cc1ccccc1)NC(=O)CNC(=O)CNC(=O)[C@@H](N)Cc1ccc(O)cc1)C(=O)N[C@@H](C)C(N)=O (H-YGGFLA-NH2) | 13.7
CC(C)C[C@H](NC(=O)CNC(=O)CNC(=O)[C@@H](N)Cc1ccc(O)cc1)C(=O)N[C@@H](CO)C(N)=O (H-YGGLS-NH2) | 991
NC(=O)CC[C@H](NC(=O)[C@H](Cc1ccccc1)NC(=O)CNC(=O)CNC(=O)[C@@H](N)Cc1ccccc1)C(N)=O (H-FGGFQ-NH2) | 40.1

These compounds were tested on Monoclonal antibody (mAb) 3E7 (assay: Affinity towards anti-beta-endorphin MAb(Clone 3-E7) using [3H][Leu5]-enkephalin as labeled ligand at 10 uM concentration; not active).

Compound | Activity
CC(C)[C@H](NC(=O)CNC(=O)[C@@H](N)Cc1ccc(O)cc1)C(=O)N[C@@H](Cc1ccccc1)C(=O)N[C@@H](C)C(=O)O (H-YGVFA-OH) | inactive
N[C@@H](Cc1ccc(O)cc1)C(=O)NCC(=O)NCC(=O)NCC(=O)N[C@@H](Cc1ccccc1)C(=O)O (H-YGGGF-OH) | inactive
CC(C)C[C@H](N)C(=O)N[C@@H](Cc1ccc(O)cc1)C(=O)NCC(=O)NCC(=O)N[C@@H](Cc1ccccc1)C(=O)O (H-LYGGF-OH) | inactive
NC(=O)CC[C@H](NC(=O)[C@H](Cc1ccccc1)NC(=O)[C@H](Cc1ccccc1)NC(=O)CNC(=O)[C@@H](N)Cc1ccc(O)cc1)C(=O)O (H-YGFFQ-OH) | inactive
C[C@H](NC(=O)CNC(=O)[C@@H](N)Cc1ccc(O)cc1)C(=O)N[C@@H](Cc1c[nH]c2ccccc12)C(=O)N[C@@H](CC(=O)O)C(=O)O (H-YGAWD-OH) | inactive
N[C@@H](Cc1ccc(O)cc1)C(=O)NCC(=O)N1CCC[C@H]1C(=O)NCC(=O)N[C@@H](Cc1ccccc1)C(=O)O (H-YGPGF-OH) | inactive
CC(C)C[C@H](NC(=O)CNC(=O)[C@@H](N)Cc1ccc(O)cc1)C(=O)NCC(=O)N[C@@H](Cc1ccccc1)C(=O)O (H-YGLGF-OH) | inactive
CC(C)[C@H](NC(=O)CNC(=O)[C@@H](N)Cc1ccc(O)cc1)C(=O)N[C@@H](Cc1ccccc1)C(=O)N[C@@H](CCC(=O)O)C(=O)O (H-YGVFE-OH) | inactive
NC(=O)C[C@H](NC(=O)[C@H](Cc1ccccc1)NC(=O)[C@H](Cc1c[nH]c2ccccc12)NC(=O)CNC(=O)[C@@H](N)Cc1ccc(O)cc1)C(=O)O (H-YGWFN-OH) | inactive
CC[C@H](C)[C@H](NC(=O)[C@H](Cc1ccccc1)NC(=O)CNC(=O)CNC(=O)[C@@H](N)Cc1ccc(O)cc1)C(=O)O (H-YGGFI-OH) | inactive
N[C@@H](Cc1ccc(O)cc1)C(=O)NCC(=O)N[C@@H](Cc1c[nH]c2ccccc12)C(=O)N[C@@H](Cc1ccccc1)C(=O)N[C@@H](Cc1c[nH]cn1)C(=O)O (H-YGWFH-OH) | inactive
CC[C@H](C)[C@H](NC(=O)[C@H](Cc1ccccc1)NC(=O)[C@@H](NC(=O)CNC(=O)[C@@H](N)Cc1ccc(O)cc1)C(C)C)C(=O)O (H-YGVFI-OH) | inactive
C[C@H](NC(=O)CNC(=O)[C@@H](N)Cc1ccc(O)cc1)C(=O)N[C@@H](Cc1ccccc1)C(=O)N[C@@H](Cc1ccccc1)C(=O)O (H-YGAFF-OH) | inactive
CC(C)C[C@H](NC(=O)[C@H](Cc1ccccc1)NC(=O)CNC(=O)CNC(=O)[C@@H](N)Cc1ccc(O)cc1)C(=O)O [ENKEPHALIN] | inactive
CC(C)C[C@H](NC(=O)[C@H](CC(C)C)NC(=O)CNC(=O)[C@H](Cc1ccc(O)cc1)NC(=O)[C@@H](N)CCCN=C(N)N)C(=O)O (H-RYGLL-OH) | inactive
NC(=O)CC[C@H](NC(=O)[C@H](Cc1ccccc1)NC(=O)[C@H](Cc1c[nH]c2ccccc12)NC(=O)CNC(=O)[C@@H](N)Cc1ccc(O)cc1)C(=O)O (H-YGWFQ-OH) | inactive
C[C@H](NC(=O)CNC(=O)[C@@H](N)Cc1ccc(O)cc1)C(=O)N[C@@H](Cc1ccccc1)C(=O)N[C@H](C(=O)O)[C@@H](C)O (H-YGAFT-OH) | inactive
CC(C)C[C@H](NC(=O)[C@H](C)NC(=O)CNC(=O)[C@@H](N)Cc1ccc(O)cc1)C(=O)N[C@H](C(=O)O)[C@@H](C)O (H-YGALT-OH) | inactive

Compound | Activity
C[C@H](NC(=O)[C@H](CCC(=O)O)NC(=O)CNC(=O)[C@@H](N)Cc1ccc(O)cc1)C(=O)N[C@@H](Cc1ccccc1)C(=O)O (H-YGEAF-OH) | inactive
NCCCC[C@H](NC(=O)[C@@H](N)Cc1ccc(O)cc1)C(=O)NCC(=O)NCC(=O)N[C@@H](Cc1ccccc1)C(=O)O (H-YKGGF-OH) | inactive
NC(=O)CC[C@H](NC(=O)[C@H](Cc1c[nH]c2ccccc12)NC(=O)[C@H](Cc1ccc(O)cc1)NC(=O)CNC(=O)[C@@H](N)Cc1ccc(O)cc1)C(=O)O (H-YGYWQ-OH) | inactive
NC(=O)C[C@H](N)C(=O)N[C@@H](Cc1ccc(O)cc1)C(=O)NCC(=O)NCC(=O)N[C@@H](Cc1ccccc1)C(=O)O (H-NYGGF-OH) | inactive
NC(=O)C[C@H](NC(=O)CNC(=O)[C@@H](N)Cc1ccc(O)cc1)C(=O)N[C@@H](Cc1ccccc1)C(=O)N[C@@H](Cc1ccccc1)C(=O)O (H-YGNFF-OH) | inactive
N[C@@H](Cc1ccc(O)cc1)C(=O)NCC(=O)N[C@@H](Cc1ccc(O)cc1)C(=O)N[C@@H](Cc1ccccc1)C(=O)N[C@@H](Cc1ccccc1)C(=O)O (H-YGYFF-OH) | inactive
CC[C@H](C)[C@H](NC(=O)[C@H](Cc1ccccc1)NC(=O)[C@H](C)NC(=O)CNC(=O)[C@@H](N)Cc1ccc(O)cc1)C(=O)O (H-YGAFI-OH) | inactive
C[C@H](NC(=O)CNC(=O)[C@@H](N)Cc1ccc(O)cc1)C(=O)N[C@@H](Cc1ccccc1)C(=O)N[C@@H](CCC(N)=O)C(=O)O (H-YGAFQ-OH) | inactive
CSCC[C@H](NC(=O)CNC(=O)[C@@H](N)Cc1ccc(O)cc1)C(=O)NCC(=O)N[C@@H](Cc1ccccc1)C(=O)O (H-YGMGF-OH) | inactive
NC(=O)CC[C@H](NC(=O)[C@@H](N)Cc1ccc(O)cc1)C(=O)NCC(=O)NCC(=O)N[C@@H](Cc1ccccc1)C(=O)O (H-YQGGF-OH) | inactive
CC(C)[C@H](NC(=O)[C@H](Cc1ccccc1)NC(=O)[C@H](CCC(N)=O)NC(=O)CNC(=O)[C@@H](N)Cc1ccc(O)cc1)C(=O)O (H-YGQFV-OH) | inactive
C[C@H](NC(=O)[C@H](Cc1c[nH]cn1)NC(=O)CNC(=O)[C@@H](N)Cc1ccc(O)cc1)C(=O)N[C@@H](Cc1ccccc1)C(=O)O (H-YGHAF-OH) | inactive
CC(C)C[C@H](NC(=O)[C@@H](N)Cc1ccc(O)cc1)C(=O)NCC(=O)NCC(=O)N[C@@H](Cc1ccccc1)C(=O)O (H-YLGGF-OH) | inactive
CSCC[C@H](N)C(=O)N[C@@H](Cc1ccc(O)cc1)C(=O)NCC(=O)NCC(=O)N[C@@H](Cc1ccccc1)C(=O)O (H-MYGGF-OH) | inactive
NC(=O)CC[C@H](NC(=O)[C@H](Cc1ccccc1)NC(=O)CNC(=O)CNC(=O)[C@@H](N)Cc1ccc(O)cc1)C(=O)O (H-YGGFQ-OH) | inactive
CSCC[C@H](NC(=O)[C@H](Cc1c[nH]c2ccccc12)NC(=O)[C@H](Cc1c[nH]c2ccccc12)NC(=O)CNC(=O)[C@@H](N)Cc1ccc(O)cc1)C(=O)O (H-YGWWM-OH) | inactive
CC(C)[C@H](NC(=O)CNC(=O)[C@@H](N)Cc1ccc(O)cc1)C(=O)N[C@@H](Cc1ccccc1)C(=O)N[C@@H](CCC(N)=O)C(=O)O (H-YGVFQ-OH) | inactive
CSCC[C@H](NC(=O)[C@H](Cc1ccccc1)NC(=O)[C@H](C)NC(=O)CNC(=O)[C@@H](N)Cc1ccc(O)cc1)C(=O)O (H-YGAFM-OH) | inactive
